# Data: patent publication EP0605371A1 (priority 1992, dated 1994)
# Key:
# [1] = tested on: cancer patients; details: cancer patients no longer responsive to conventional therapies; cited from earlier work
# [2] = tested on: patients with Parkinson's disease; details: cited from earlier work
# [3] = tested on: patients with pulmonary sarcoidosis; assay: Four-month oral melatonin treatment of patients with pulmonary sarcoidosis; assay type: in vivo
# Protocol: (§1) Treatment with melatonin was administered to ambulant patients with various forms of systemic scleroderma, in various stages of the disease, and to patients with sarcoidosis.
# (§2) The patients and methods were as follows:
# (§3) Ten patients with systemic scleroderma in an active phase and four patients with pulmonary sarcoidosis were selected.
# The diagnosis was made on the basis of histological tests performed on biopsy samples, the BAL for the T-lymphocyte count and scintigraphy with gallium-67. Overall lung function tests, a chest X-ray and numerous laboratory tests (ACE, blood calcium, urinary calcium, ESR, etc.) were also performed.
# The effects of the treatment were evaluated monthly on the basis of any changes in lung function and ACE levels and at the end of the four-month period on the basis of any changes in the radiological findings.
# (§4) When the clinical evaluation had been completed and after all the laboratory tests had been performed, the patients with systemic scleroderma and sarcoidosis received in a daily dose of 20 mg taken by mouth as a single dose between 18.00 and 20.00 hours. This timing was chosen with the aim of interfering as little as possible with the circadian rhythm of endogenous melatonin secretion.
# (§5) The other patients with systemic scleroderma and those with sarcoidosis received only melatonin.
# [4] = tested on: patients with systemic scleroderma; assay type: in vivo
# Protocol: as §1, §2, §3
# The clinical characteristics of the patients with systemic scleroderma and the level of activity and severity of the disease were assessed with the aid of a skin score (cf. annexe) and information obtained from lung function tests, a chest X-ray, pulmonary CAT and numerous laboratory tests (antinuclear antibodies (A), A to the extractable nuclear antigen Scl-70, antinucleolar A, anti-DNA A, antimicrosome A, anticentromeric A, ESR, ACE, CRP, gamma globulins).
# To assess the effects of the treatment, the skin-score, ESR, ACE, CRP were determined monthly, the lung function tests were performed every 2 months, and chest X-ray and/or thoracic CAT carried out at the end of a 4-month course of treatment.
# as §4
# The clinical investigations and laboratory tests performed at the start of the combined treatment therefore served both as a control on the treatment with hydroxychloroquine and to provide the base values for the tests performed during the treatment with melatonin.
# as §5
# [5] = 20 mg melatonin per day for four months
smiles,measurement,setting,value
"COc1ccc2[nH]cc(CCNC(C)=O)c2c1 [melatonin, 5-methoxy-N-acetyltryptamine]",patients' general condition and disease course,[1],the patients' general condition showed improvement and the disease was temporarily stabilized
same,demonstrable advantages,[2]; daily doses of up to 6 g,no demonstrable advantages
same,adverse effects,"[2]; human, in vivo",no adverse effects
same,radiological investigation (changes affecting the hilum and the pulmonary parenchyma),[3]; end of the four-month course,definitive reduction
same,lung function tests,"[3]; end of the four-month course, four patients",the findings in three patients had returned to normal and the fourth patient showed marked improvement
same,fall of BAL lymphocyte count,"[3]; end of the four-month course, on average",70%
same,ACE,"[3]; monthly determination, 20 mg per day, all cases (FIG.2)",the values gradually returned to normal
same,CRP or gamma globulin values,[4]; [5],No significant changes
same,subjective respiratory disturbances,[4]; [5],marked subjective reduction
same,lung function tests,"[4]; 20 mg melatonin per day for four months, ten patients",significant improvement in nine of the ten patients
same,skin score,"[4]; 20 mg melatonin per day for four months, ten patients (FIG.1)",highly positive results
same,chest X-ray,"[4]; after 4 months of treatment, all patients",No significant changes were found in any of the patients
same,ESR,"[4]; throughout the course of treatment, 20 mg per day",It was not possible to demonstrate that the hormone treatment had an effect on this parameter
